Reference: patent US7977326B2, “Supportive treatment of liver disease” (priority 2004, dated 2011)
Read-outs that look alike come from different tables or passages of the source.

Legend:
[1] = test system: microvascular blood flow within the liver; conditions: in vivo; cited from earlier work
Hepatic liver microsomes = conditions: for Fluorescence Activity: 1 mM AAPH, n=6
Procedure: Hepatic liver microsomes were obtained from 4 healthy piglets as described previously. Microsomes were stored at −80° C. until required for study. Concentration of microsomes was 1 mg/ml. Diltiazem concentrations were 50 and 500 μM, Thiamine concentrations tested included 10, 50, and 100 μM. Free radical generator AAPH was 1 mM. The study detected hepatic lipid peroxidation products by analyzing the fluorescence activity of the dye DCFH by a plate reader as described in our previous report.
DCF-DA was treated with 2M NaOH and MeOH for 2 hours and after which time it was neutralized with HCl to yield the intracellular form of DCFH as described by the manufacturer. Hepatic microsomes were diluted to 1 mg/ml using Phosphate Buffered Saline (PBS). Microsomes were incubated with various concentrations of diltiazem, thiamine or in combination at 37° C. for 1 hour. Control microsomes were incubated with PBS (no drug treatment). Microsomal mixture was then incubated with 1 mM AAPH for 1 hour to initiate free radical induced lipid peroxidation for 1 hour at 37° C. Following incubation, the microsomal mixture was centrifuged at 2000 rpm using 5000 MWCO ultracentrifuge tubes and the procedure repeated twice with PBS to remove any AAPH and drug. Lipid peroxidized microsomes were incubated with 10 μM DCFH for 15 minutes and fluorescence activity recorded using a fluorescence plate reader.

[2] = test system: piglet hepatic microsomal membranes; test: Parallel studies using H2O2 as a free radical generator; assay type: biochemical
[3] = test system: piglet hepatic microsomal membranes; test: DCF activity in AAPH induced free radical release in microsomes (lipid peroxidation); assay type: biochemical; parameters: DCF activity in AAPH induced free radical release: unit not given here; conditions: for inhibition of membrane oxidation (reduction in DCF activity): 0-1000 μM, AAPH; for DCF activity in AAPH induced free radical release: one hour at 37° C. then one hour AAPH
Procedure: The protective effect of diltiazem on cell membranes was examined in piglet hepatic microsomal membranes obtained from the livers of 3-week-old female piglets. […] Following incubation the microsomal mixture was centrifuged at 2000 rpm to remove excess AAPH and diltiazem. The extent of reactive oxygen species mediated lipid peroxidation in the microsomal membranes was then measured employing the fluorescence market dichlorofluoresen (DCF, 10μ for 15 min). Image analysis.

[4] = test system: patients with Hepatitis B; conditions: cited from earlier work

Row | SMILES | effect on microvascular blood flow within the liver [1] | Fluorescence Activity (Hepatic liver microsomes; Diltiazem 50 μM) | Fluorescence Activity (Hepatic liver microsomes; Diltiazem 500 μM) | protection against H2O2 as free radical generator [2] | inhibition of membrane oxidation (reduction in DCF activity) [3] | DCF activity in AAPH induced free radical release ([3]; 5 μM) | DCF activity in AAPH induced free radical release ([3]; 50 μM) | DCF activity in AAPH induced free radical release ([3]; 250 μM) | DCF activity in AAPH induced free radical release ([3]; 500 μM) | DCF activity in AAPH induced free radical release ([3]; 1000 μM) | Fluorescence Activity (Hepatic liver microsomes; Thiamine 10 μM) | Fluorescence Activity (Hepatic liver microsomes; Thiamine 50 μM) | Fluorescence Activity (Hepatic liver microsomes; Thiamine 100 μM) | effect on fluorescence activity (free radical release), in words (Hepatic liver microsomes; thiamine added to microsomes) | effect on liver function [4]
1 | COc1ccc([C@@H]2Sc3ccccc3N(CCN(C)C)C(=O)[C@@H]2OC(C)=O)cc1 (relative stereo) [Diltiazem, cis-(+)-3-(acetyloxy)-5-[2-(dimethylamino)ethyl]-2,3-dihydro-2-(4-methoxyphenyl)-1,5-benzothiazepin-4(5H)-one] | no effect | 36492 | 32271 | not protective | dose-dependent inhibition of membrane oxidation | 44501 | 38293 | 35148 | 31498 | 27258 |  |  |  |  | 
2 | COc1ccc([C@H]2Sc3ccccc3N(CCN(C)C)C(=O)[C@H]2OC(C)=O)cc1 [L-diltiazem] |  |  |  |  | not | 52799 | 49949 | 51120 | 53182 | 49937 |  |  |  |  | 
3 | Cc1ncc(C[n+]2csc(CCO)c2C)c(N)n1 [Thiamine, thiamine] |  |  |  |  |  |  |  |  |  |  | 31113 | 27265 | 23477 | reduced the fluorescence activity | improve liver function
